In US20240261348A1, “LACTOBACILLUS PLANTARUM-DERIVED VESICLE AND USE THEREOF” (priority 2021, published 2024):

Tested on: AMPK (pAMPK) in muscle cells (L6 myotube cells)
Assay: AMPK activation in muscle cells (pAMPK western blotting)
Assay type: cell-based
Experimental: Therefore, an experiment was conducted to evaluate whether Lactobacillus plantarum-derived vesicles (Lp EV) affect cellular aging through AMPK activation in cells. To evaluate AMPK activation according to a concentration of treated Lactobacillus plantarum-derived vesicles in vitro, muscle cells (L6 myotube cells) were treated with the Lactobacillus plantarum-derived vesicles at 0, 0.1, 1, or 10 μg/mL for 1 hour. As a control, insulin (1 μM), which promotes aging and metformin (50 mM), which inhibits aging were used. After treating the cells with the drug, the difference in the amount of pAMPK, which is a key indicator in AMPK signaling, was measured through western blotting. […] To perform BCA quantitative analysis, the 1.5 mL microtube containing 5 μL of the lysed sample supernatant was taken out at room temperature, 20 μL of sterile distilled water was added thereto, and the resulting solution was vortexed and then spun down. […] After reacting in a 37° C. incubator for 30 minutes, absorbance was measured at 562 nm using a SpectraMax M3 microplate reader (Molecular Devices, USA). For western blotting, in the process of tris-glycine SDS-polyacrylamide gel electrophoresis, a 10% gel was prepared, and 50 μg of a protein for each sample was quantified and loaded. […]

Compound	phosphorylation of AMPK (pAMPK) (insulin 1 μM for 1 hour (FIG. 8))	phosphorylation of AMPK (pAMPK) (metformin 50 mM for 1 hour (FIG. 8))
insulin	inhibited	
CN(C)C(=N)N=C(N)N [metformin]		increased
